Here are results for eleven compounds from ChEMBL document CHEMBL4020711, “Synthesis and biological evaluation of neoglycosphingolipids” (Eur J Med Chem, 2017).

Active and inactive are the calls of the source. The calls are words filed in the database; no cut-off is given here.

One test concerns B16. Description: Upregulation of MMP-9 mRNA expression in mouse B16 cells at 25 uM after 24 hrs by qRT-PCR analysis. The test is classed as functional, cell-based.
As to `CCCCCCCCCCCCCCCCCCOC(=O)CON(C)[C@@H]1O[C@H](CO)[C@H](O)[C@H](O)[C@H]1O`, the outcome was Active.

On to `CCCCCCCCCCCCCCCCCCOC(=O)CON(C)[C@@H]1O[C@H](CO)[C@@H](O[C@@H]2O[C@H](CO)[C@@H](O[C@H]3O[C@H](CO)[C@@H](O)[C@H](O)[C@H]3O)[C@H](O)[C@H]2O)[C@H](O)[C@H]1O`, for which the outcome was Active.

Consider `CCCCCCCCCCCCC/C=C/[C@H](O)[C@@H](CO[C@@H]1O[C@H](CO)[C@@H](O[C@@H]2O[C@H](CO)[C@H](O)[C@H](O[C@]3(C(=O)O)C[C@H](O)[C@@H](NC(C)=O)[C@H]([C@H](O)[C@H](O)CO)O3)[C@H]2O)[C@H](O)[C@H]1O)NC(=O)CCCCCCCCCCCCCCCCC`, for which the result was Active.

`CCCCCCCCCCCCCCCCCCOC(=O)[C@H](COC(=O)CON(C)[C@@H]1O[C@H](CO)[C@@H](O[C@@H]2O[C@H](CO)[C@H](O)[C@H](O[C@]3(C(=O)O)C[C@H](O)[C@@H](NC(C)=O)[C@H]([C@H](O)[C@H](O)CO)O3)[C@H]2O)[C@H](O)[C@H]1O)NC(=O)CCCCCCCCCCCCCCCCC`: the result was Active.

Take `CCCCCCCCCCCCCCCCCCOC(=O)[C@H](COC(=O)CON(C)[C@@H]1O[C@H](CO)[C@@H](O)[C@H](O)[C@H]1O)NC(=O)CCCCCCCCCCCCCCCCC`: the outcome was Active.

As to `CCCCCCCCCCCCCCCCCCOC(=O)CON(C)[C@@H]1O[C@H](CO)[C@@H](O[C@@H]2O[C@H](CO)[C@H](O)[C@H](O)[C@H]2O)[C@H](O)[C@H]1O`, the outcome was Active.

As to `CCCCCCCCCCCCCCCCCCOC(=O)[C@H](COC(=O)CON(C)[C@@H]1O[C@H](CO)[C@@H](O[C@@H]2O[C@H](CO)[C@H](O)[C@H](O)[C@H]2O)[C@H](O)[C@H]1O)NC(=O)CCCCCCCCCCCCCCCCC`, the outcome was Active.

The test system of a further test is B16. Nature of the test: Suppression of MMP-9 mRNA expression in mouse B16 cells at 1 uM after 24 hrs by qRT-PCR analysis. The test is classed as functional, cell-based. In general terms: In qPCR the cycle at which signal appears reflects the starting amount.
With `CCCCCCCCCCCCCCCCCCOC(=O)CON(C)[C@@H]1O[C@H](CO)[C@@H](O)[C@H](O)[C@H]1O`, the inhibition result was “inactive”.

`CCCCCCCCCCCCCCCCCCOC(=O)[C@H](COC(=O)CON(C)[C@@H]1O[C@H](CO)[C@@H](O[C@@H]2O[C@H](CO)[C@@H](O[C@H]3O[C@H](CO)[C@@H](O)[C@H](O)[C@H]3O)[C@H](O)[C@H]2O)[C@H](O)[C@H]1O)NC(=O)CCCCCCCCCCCCCCCCC`: the inhibition result is “inactive”.

`CCCCCCCCCCCCCCCCCCOC(=O)[C@H](COC(=O)CON(C)[C@@H]1O[C@H](CO)[C@H](O)[C@H](O)[C@H]1O)NC(=O)CCCCCCCCCCCCCCCCC`: the inhibition result is “inactive”.

A further test relates to B16. Nature of the test: Upregulation of MMP-9 mRNA expression in mouse B16 cells at 1 uM after 24 hrs by qRT-PCR analysis. The test is classed as functional, cell-based.
Take `CCCCCCCCCCCCCCCCCCOC(=O)CON(C)[C@@H]1O[C@H](CO)[C@@H](O[C@@H]2O[C@H](CO)[C@H](O)[C@H](O[C@]3(C(=O)O)C[C@H](O)[C@@H](NC(C)=O)[C@H]([C@H](O)[C@H](O)CO)O3)[C@H]2O)[C@H](O)[C@H]1O`: the outcome was Active.
